Experimental data as given in paper PMC11209699 (ACS Omega, 2024).
Where “and” joins values, the source holds several entries; their conditions need not be identical. Identical values can stand only once. Entries after “also recorded” stand apart in the source; their conditions may differ.

Assays:
[1] = target: MCL-1 (Homo sapiens, UniProt Q07820); experiment: fluorescence polarization; details: for binding to MCL-1 (in words): tested up to 100 μM
[2] = CCK-8 cell viability; format: cell-based; details: human, HEK293T cells
[3] = system: MV-4–11 cells; experiment: CCK-8 cell viability; format: cell-based; details: Homo sapiens, MV4-11, 48 h, read-out: cytotoxicity (IC50) MV-4–11
[4] = system: MV-4–11 cells; experiment: annexin V and PI double-staining flow cytometry; format: cell-based; details: 24 h
[5] = system: MV-4–11 xenograft mice; experiment: in vivo antitumor study, MV-4–11 xenograft mouse model; details: for effect on body weight after 20 days (in words): 90% confidence level vs vehicle
[6] = system: H929 cells; experiment: CCK-8 cell viability; format: cell-based; details: Homo sapiens, NCI-H929, 48 h, read-out: cytotoxicity (IC50) H929
[7] = system: RS4;11 cells; experiment: CCK-8 cell viability; format: cell-based; details: Homo sapiens, RS4-11, 48 h, read-out: cytotoxicity (IC50) RS4;11
[8] = system: HL-60 cells; experiment: CCK-8 cell viability; format: cell-based; details: Homo sapiens, HL-60, 48 h, read-out: cytotoxicity (IC50) HL-60
[9] = system: HeLa cells; experiment: CCK-8 cell viability; format: cell-based; details: Homo sapiens, 48 h, read-out: cytotoxicity (IC50) HeLa
[10] = system: MV-4–11 cells; experiment: kinetics study in cells; format: in vitro ADME; details: GQN-B37-Me given to MV-4–11 cells at 40 μM, monitored over 8 h
[11] = target: BCL-xL (Homo sapiens, UniProt Q07817); experiment: fluorescence polarization; details: FP assay, tested up to 100 μM
[12] = target: BCL-2 (Homo sapiens, UniProt P10415); experiment: fluorescence polarization; details: FP assay
[13] = stability in liver microsomes; format: in vitro ADME; details: human
[14] = system: PARP and caspase-3 in H929 cells; experiment: Western blot of PARP and caspase-3 cleavage; format: cell-based; details: 5 to 40 μM, 24 h
[15] = stability in GSH; format: in vitro ADME; details: exposure to GSH for up to 2 h
[16] = system: MV-4–11 xenograft mice; format: in vivo, mouse; details: after 20 days treatment
[17] = stability in liver microsomes; format: in vitro ADME; details: monkey, pooled monkey liver microsomes
[18] = target: MCL-1/BIM interaction in H929 cells (Homo sapiens, UniProt Q07820); experiment: coimmunoprecipitation; format: cell-based; details: 10 μM, 10 h
[19] = stability in liver microsomes; format: in vitro ADME; details: rat, pooled rat liver microsomes
[20] = stability in liver microsomes; format: in vitro ADME; details: dog, pooled dog liver microsomes

Sequence of MCL-1 (Q07820 152-327): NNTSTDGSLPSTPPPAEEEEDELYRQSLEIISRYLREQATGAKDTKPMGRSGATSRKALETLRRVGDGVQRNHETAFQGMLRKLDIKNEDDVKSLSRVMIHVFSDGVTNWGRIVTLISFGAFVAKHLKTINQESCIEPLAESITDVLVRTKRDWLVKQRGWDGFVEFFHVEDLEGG
Sequence of BCL-2 (P10415 1-207): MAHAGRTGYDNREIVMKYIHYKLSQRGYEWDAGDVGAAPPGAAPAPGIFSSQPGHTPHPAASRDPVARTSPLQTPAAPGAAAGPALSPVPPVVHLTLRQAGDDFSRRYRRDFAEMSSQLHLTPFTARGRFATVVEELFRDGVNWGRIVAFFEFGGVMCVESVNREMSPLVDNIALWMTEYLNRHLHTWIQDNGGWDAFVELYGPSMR
Sequence of BCL-xL (Q07817 45-233): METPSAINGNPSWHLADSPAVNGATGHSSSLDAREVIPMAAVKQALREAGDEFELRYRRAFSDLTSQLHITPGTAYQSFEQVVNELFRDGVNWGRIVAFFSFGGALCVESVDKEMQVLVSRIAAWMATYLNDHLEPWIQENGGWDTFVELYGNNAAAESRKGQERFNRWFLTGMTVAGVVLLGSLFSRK
Sequence of MCL-1/BIM interaction in H929 cells (Q07820 whole entry): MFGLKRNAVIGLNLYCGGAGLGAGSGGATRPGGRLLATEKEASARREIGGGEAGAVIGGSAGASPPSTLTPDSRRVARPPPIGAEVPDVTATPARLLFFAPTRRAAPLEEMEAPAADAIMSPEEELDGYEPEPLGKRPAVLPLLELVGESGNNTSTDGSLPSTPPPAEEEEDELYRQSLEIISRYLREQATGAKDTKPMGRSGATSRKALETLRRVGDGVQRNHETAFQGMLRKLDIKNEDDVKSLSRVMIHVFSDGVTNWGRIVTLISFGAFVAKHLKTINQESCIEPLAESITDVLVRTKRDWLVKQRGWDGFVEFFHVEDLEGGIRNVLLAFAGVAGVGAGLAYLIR

SMILES	IC50 at 48 h [2] [µM]	IC50 [3] [µM]	IC50 [6] [µM]	IC50 [7] [µM]	IC50 [8] [µM]	IC50 [9] [µM]	also measured
CC1(C)CCC(CN2CCN(c3ccc(C(=O)NS(=O)(=O)c4ccc(NCC5CCOCC5)c([N+](=O)[O-])c4)c(Oc4cnc5[nH]ccc5c4)c3)CC2)=C(c2ccc(Cl)cc2)C1 [ABT-199, reference compound]	–	–	–	–	–	–	binding to MCL-1 (in words) ([1]; FP assay): no obvious binding
Cc1c2c(nn1C)CSCc1cc(n(C)n1)CSc1cc(c3ccccc3c1)OCCCc1c(C(=O)O)n(C)c3c-2c(Cl)ccc13 [AZD5991, reference compound]	> 20	< 0.01	0.05 ± 0.01	–	–	–	cells in quadrant Q3-2 (late apoptosis, annexin V (+) and PI (+)) ([4]; 1 μM, MV-4–11 cells): ~75%; tumor growth inhibition on day 20 ([5]; 10 mg/kg i.p. every 2 days for 20 days): 56%; effect on body weight after 20 days (in words) ([5]; 10 mg/kg i.p. every 2 days): caused significant body weight loss
O=C(/C=C/c1cn(-c2ccccc2)nc1-c1ccc2ccccc2c1)N[C@@H](Cc1c[nH]c2ccccc12)C(=O)O [GQN-B18-E, (E)-(3-(3-(Naphthalen-2-yl)-1-phenyl-1H-pyrazol-4-yl)acryloyl)-L-tryptophan]	> 20	> 50	> 50	> 20	> 20	> 50	–
COC(=O)[C@H](Cc1c[nH]c2ccccc12)NC(=O)/C=C/c1cn(-c2ccccc2)nc1-c1ccc2ccccc2c1 [GQN-B18-Me, Methyl-(E)-(3-(3-(naphthalen-2-yl)-1-phenyl-1H-pyrazol-4-yl)acryloyl)-L-tryptophanate]	> 20	> 20	7.97 ± 1.01	> 20	> 20	> 20	binding to MCL-1 (in words) ([1]; FP assay): totally abolished; also recorded: complete loss of binding
O=C(/C=C/c1cn(-c2cccc(Cl)c2)nc1-c1ccc(C2CCCCC2)cc1)N[C@@H](Cc1c[nH]c2ccccc12)C(=O)O [GQN-B33-E, (E)-(3-(1-(3-Chlorophenyl)-3-(4-cyclohexylphenyl)-1H-pyrazol-4-yl)acryloyl)-L-tryptophan]	> 20	> 20	> 50	> 20	> 50	> 50	–
COC(=O)[C@H](Cc1c[nH]c2ccccc12)NC(=O)/C=C/c1cn(-c2cccc(Cl)c2)nc1-c1ccc(C2CCCCC2)cc1 [GQN-B33-Me, Methyl-(E)-(3-(1-(3-chlorophenyl)-3-(4-cyclohexylphenyl)-1H-pyrazol-4-yl)acryloyl)-L-tryptophanate]	> 20	> 20	4.64 ± 0.01	> 20	> 50	> 50	–
Nc1ccc(-c2nn(-c3cccc(Cl)c3)cc2/C=C/C(=O)N[C@@H](Cc2c[nH]c3ccccc23)C(=O)O)cc1 [GQN-B35-E, (E)-(3-(3-(4-Aminophenyl)-1-(3-chlorophenyl)-1H-pyrazol-4-yl)acryloyl)-L-tryptophan]	> 20	> 50	> 50	> 50	> 50	> 50	–
COC(=O)[C@H](Cc1c[nH]c2ccccc12)NC(=O)/C=C/c1cn(-c2cccc(Cl)c2)nc1-c1ccc(N)cc1 [GQN-B35-Me, Methyl-(E)-(3-(3-(4-aminophenyl)-1-(3-chlorophenyl)-1H-pyrazol-4-yl)acryloyl)-L-tryptophanate]	> 20	20.52 ± 0.12	3.89 ± 0.07	> 20	> 20	> 50	–
O=C(/C=C/c1cn(-c2cccc(Cl)c2)nc1-c1ccc(N2CCOCC2)cc1)N[C@@H](Cc1c[nH]c2ccccc12)C(=O)O [GQN-B36-E, (E)-(3-(1-(3-Chlorophenyl)-3-(4-morpholinophenyl)-1H-pyrazol-4-yl)acryloyl)-L-tryptophan]	> 20	> 50	> 50	> 50	> 50	> 50	–
COC(=O)[C@H](Cc1c[nH]c2ccccc12)NC(=O)/C=C/c1cn(-c2cccc(Cl)c2)nc1-c1ccc(N2CCOCC2)cc1 [GQN-B36-Me, Methyl-(E)-(3-(1-(3-chlorophenyl)-3-(4-morpholinophenyl)-1H-pyrazol-4-yl)acryloyl)-L-tryptophanate]	> 20	> 20	> 20	> 20	> 20	> 50	–
O=C(/C=C/c1cn(-c2cccc(Cl)c2)nc1-c1ccc(O)cc1)N[C@@H](Cc1c[nH]c2ccccc12)C(=O)O [GQN-B37-E, (E)-(3-(1-(3-Chlorophenyl)-3-(4-hydroxyphenyl)-1H-pyrazol-4-yl)acryloyl)-L-tryptophan]	> 20	> 50	> 50	> 50	> 50	> 50	ligand efficiency (LE) ([1]; binding energy divided by the number of heavy atoms, MCL-1): 0.22 kcal/mol; time at which intracellular GQN-B37-E reached a peak [10]: 3 h; binding to BCL-XL (in words) [11]: without apparent binding; binding to BCL-2 (in words) ([12]; tested up to 100 μM): without apparent binding
COC(=O)[C@H](Cc1c[nH]c2ccccc12)NC(=O)/C=C/c1cn(-c2cccc(Cl)c2)nc1-c1ccc(O)cc1 [GQN-B37-Me, Methyl-(E)-(3-(1-(3-chlorophenyl)-3-(4-hydroxyphenyl)-1H-pyrazol-4-yl)acryloyl)-L-tryptophanate]	> 20	5.57 ± 0.09	3.71 ± 0.33	15.9 ± 0.98	> 20	> 20	half-life at 1.4 μM [13]: 0.77 h; cleavage of full-length PARP (116 to 89 kDa) [14]: dose-dependent cleavage; binding to MCL-1 (in words) ([1]; FP assay): complete loss of binding; stability following incubation with GSH (in words) [15]: basically intact; lesions in liver, kidney and heart (HE staining) ([16]; 12.5 and 50 mg/kg): no evidence of lesions; necrosis of tumor tissues (HE staining) ([16]; 12.5 and 50 mg/kg): dose-dependent necrosis of tumor tissues; level of proliferation in tumor tissues (Ki-67) ([16]; compared to the blank group): significantly reduced; half-life at 1.4 μM [17]: 0.58 h; induction of late apoptosis (in words) ([4]; doses ranging from 1 to 40 μM): induced late apoptosis in a clear dose-dependent manner; disruption of the MCL-1/BIM interaction [18]: disrupts the MCL-1/BIM interaction considerably; half-life at 1.4 μM [19]: 1.92 h; tumor growth inhibition on day 20 ([5]; 12.5 mg/kg i.p. every 2 days for 20 days): 30%; effect on body weight after 20 days (in words) ([5]; 12.5 mg/kg i.p. every 2 days): did not cause significant body weight loss; tumor growth inhibition on day 20 ([5]; 50 mg/kg i.p. every 2 days for 20 days): 43%; effect on body weight after 20 days (in words) ([5]; 50 mg/kg i.p. every 2 days): affected body weight; half-life at 1.4 μM [20]: 1.93 h
O=C(/C=C\c1cn(-c2ccccc2)nc1-c1ccc2ccccc2c1)Nc1ccc(C(=O)O)cc1 [LC126, (Z)-4-(3-(3-(Naphthalen-2-yl)-1-phenyl-1H-pyrazol-4-yl)acrylamido)benzoic Acid]	–	–	–	–	–	–	Ki ([1]; Ki for MCL-1 (text and Figure 2), FP assay): 13 µM and ~10 µM; Ki ([12]; Ki for BCL-2 (text and Figure 2)): 10 µM and ~10 µM
